Assay results from patent US20260152533A1, “COMBINATION INHIBITORS FOR TREATING FIBROSIS” (Memorial Sloan-Kettering Cancer Center, priority 2021, published 2026).

Columns and labels:
Format in all cases: cell-based, mouse
[1] = test system: NIH-3T3 cells; experiment: Collagen abundance in ECM derived from confluent NIH-3T3 cells; conditions: 100% and 50% Gln, TGFβ
Experimental: (§1) Culture plates were coated with 0.1% gelatin (Sigma) and treated with 1% glutaraldehyde (Sigma) and 1 M ethanolamine (Sigma). Confluent NIH-3T3 cells, MFBs or PSCs were grown for 6 days on coated plates in the presence of […] sodium ascorbate (Sigma) and treated as indicated, and the medium was replaced every other day. Plates were decellularized with 20 mM ammonium hydroxide/0.5% Triton-X 100 for 5 min on a rotating platform. Three times the volume of PBS was added, and ECM was equilibrated overnight at 4° C., followed by four additional PBS washes. For western blot, preheated sample buffer supplemented with 1 mM dithiothreitol (DTT) was added, ECM was scraped off and boiled, and proteins were separated by SDS-PAGE followed by immunoblotting. To measure collagen abundance, fibroblast-derived ECM was stained with the Picro Sirius Red Stain Kit (Abcam) according to the manufacturer's instructions. The stain was extracted with 0.1 M sodium hydroxide (NaOH) and optical density was measured at 550 nm using a microplate reader. Differences in cell number were controlled for by growing cells on separate plates under the same experimental conditions.

[2] = test system: pancreatic stellate cells (PSCs); experiment: Growth experiments, PSCs; conditions: 20% Gln, TGFβ
Excerpt: NIH-3T3 cells were obtained from ATCC (CRL-1658); 293 T cells were obtained from ATCC (CRL-3216). PSCs were isolated from C57BL/6 mice by differential centrifugation as previously described^49 and their mesenchymal origin was validated by analyzing the expression of various mesenchymal and epithelial markers. MFBs were isolated from FVB/N mice by differential centrifugation as previously described^50. DB7 mouse breast cancer cells were obtained from Alexander Borowsky (University of California Davis Comprehensive Cancer Center, Sacramento, CA, USA) through an MTA to Ohio State University (OSU). KPC (Kras^LSL-G12D; Trp53^LSL-R172H; Pdx1-Cre) mouse PDAC cells were a gift from Scott Lowe (Memorial Sloan Kettering Cancer Center. (MSKCC)). […]
(§2) A total of 0.2×10^5 cells/well were plated in 24-well culture plates and media was changed and treatments started 5-6 hours later. Cell numbers at the start of treatment (day 0 “d 0”) and 1, 2 and 3 days later were counted using the Multisizer 4e (Beckman) and normalized to the cell number at d 0. In co-culture assays, a fraction of the cell population was analyzed by flow cytometry for GFP expression, and the rest counted with the Multisizer 4e. The number of KPC-GFP cells was determined by multiplying the fraction of GFP+ cells with the total number of cells.

[3] = test system: pancreatic stellate cells (PSCs); experiment: Collagen abundance in ECM derived from confluent PSCs; conditions: Gln 20% or lower, TGFβ (FIG. 8C)
Experimental: as §1

[4] = test system: NIH-3T3 cells; experiment: Growth experiments, NIH-3T3 cells; conditions: for rescue of TGFβ-induced growth defect: TGFβ, 0.2, 1 or 5 mM metabolite
Excerpt: NIH-3T3 cells were obtained from ATCC (CRL-1658); 293 T cells were obtained from ATCC (CRL-3216). PSCs were isolated from C57BL/6 mice by differential centrifugation as previously described^49 and their mesenchymal origin was validated by analyzing the expression of various mesenchymal and epithelial markers. MFBs were isolated from FVB/N mice by differential centrifugation as previously described^50. DB7 mouse breast cancer cells were obtained from Alexander Borowsky (University of California Davis Comprehensive Cancer Center, Sacramento, CA, USA) through an MTA to Ohio State University (OSU). KPC (Kras^LSL-G12D; Trp53^LSL-R172H; Pdx1-Cre) mouse PDAC cells were a gift from Scott Lowe (Memorial Sloan Kettering Cancer Center. (MSKCC)). All cells were cultured at 37° C. in 5% carbon dioxide (CO2) and 20% oxygen (O2) and were maintained in Dulbecco's Modified Eagles medium (DMEM) (25 mM D-glucose, 2 mM L-glutamine) supplemented with 10% fetal bovine serum (FBS) (Gemini), 100 units/ml penicillin and 100 μg/ml streptomycin. Primary PSC and MFB cells were kept in culture for no more than ten passages. Experiments with iCAFs and myCAFs were performed as previously described^29. In brief, qPSCs were generated by culturing PSCs in a dome of GFR Matrigel (Corning) in DMEM; iCAFs were generated by culturing PSCs in a dome of GFR Matrigel in DMEM conditioned by KPC cells for 48 h; myCAFs were generated by monolayer culture of PSCs. Differentiation was validated by analyzing the expression of iCAF/myCAF markers^29. For experiments with different glutamine concentrations, cells were seeded in regular DMEM and the medium was changed 5-6 hours later or the following day to glucose and glutamine-free DMEM supplemented with 10% dialyzed FBS (Gemini) and 20 mM D-glucose, 2 mM L-glutamine (100%), 0.4 mM L-glutamine (20%) or 0.2 mM L-glutamine (10%). All media were prepared by the Media Preparation Facility at MSKCC. Cells were verified as mycoplasma-free by the MycoAlert Mycoplasma Detection Kit (Lonza).
as §2

[5] = test system: NIH-3T3 cells; experiment: tRNA charging assay, NIH-3T3 cells
Experimental: Charging status of the indicated tRNA isodecoders was measured as previously described^20. In brief, Trizol-chloroform extracts were precipitated with 2.7× volumes of cold ethanol in the presence of 30 μg GlycoBlue (ThermoFisher) overnight. Samples were resuspended in 0.3 M acetate buffer (pH 4.5) with 10 mM ethylenediamine tetraacetic acid (EDTA) and precipitated overnight. Samples were resuspended in 10 mM acetate buffer with 1 mM EDTA. 2 μg of each RNA sample was treated with 10 mM of either sodium periodate (Sigma) (‘oxidized sample’) or sodium chloride (‘non-oxidized sample’) and incubated for 20 minutes at room temperature in the dark. Reactions were quenched with glucose for 15 minutes. Yeast Phe-tRNA (Sigma) was spiked into each sample, followed by ethanol precipitation. Samples were resuspended in 50 mM Tris buffer (pH 9) and incubated for 50 minutes at 37° C., quenched with acetate buffer and precipitated. […] Reverse transcription was performed with SuperScript IV reverse transcriptase (Thermo Scientific) according to the manufacturer's instructions, with a primer complementary to the DNA adaptor. cDNA samples were subjected to qPCR with tRNA isodecoder-specific primer pairs listed in Supplementary Table 1. Ct values obtained with primers specific for yeast Phe-tRNA were subtracted from Ct values obtained with isodecoder-specific primers. The charged fraction was calculated based on the relative difference between the delta-Ct value of a non-oxidized (representing total) and oxidized (representing charged) sample for each primer pair.

[6] = test system: NIH-3T3 cells; experiment: Translation assay (OPP), NIH-3T3 cells; conditions: TGFβ
Experimental: Cells were treated as indicated and incubated with 20 μM O-propargyl-puromycin (OPP, Thermo Scientific) for the last 1 hour of the experiment. Cells were harvested by trypsinization and fixed with methanol at −20° C., followed by permeabilization with 0.5% Triton X-100 in phosphate-buffered saline (PBS).

Compound	collagen I levels in the ECM secreted by confluent fibroblasts [1]	cell proliferation [2]	collagen accumulation in the ECM [3]	cell proliferation ([4]; 10% Gln, TGFβ)	cell proliferation ([4]; 100% and 50% Gln, TGFβ 2 ng/mL, 3 days)	charging state of glutamine-tRNA ([5]; low Gln (10%), TGFβ, 48 hours (FIG. 1D))	bulk translation ([6]; low Gln (10%), 48 hours, compared to control cells (FIG. 1F))	rescue of TGFβ-induced growth defect ([4]; 10% Gln, 3 days)	charging of glutamine-tRNA ([5]; 10% Gln, TGFβ 2 ng/mL, dm-αKG 5 mM with or without MSO 2 mM, 48 hours (FIG. 2A))	translation ([6]; 10% Gln, dm-αKG (FIG. 2B))
TGFβ: transforming growth-factor beta; TGFβ-1 purchased from Peprotech	upregulated	unable to proliferate	could no longer stimulate	ceased to proliferate	did not change	profound uncharging	reduced			
COC(=O)CC[C@H](N)C(=O)OC [dm-Glu, L-glutamic acid dimethylester]								sufficient to restore		
COC(=O)CCC(=O)C(=O)OC [dm-αKG, dimethyl alpha-ketoglutarate]								able to rescue	restored	promoted
